According to patent US20100184186A1, “NOVEL RIGIDOPORUS MICROPORUS LACCASE” (Academia Sinica, priority 2009, published 2010):

Legend:
[1] = system: Lcc35; assay: Inhibitor effects on Lcc35 laccase activity; type: biochemical, R. microporus BCRC 35318; conditions: ABTS substrate; for Relative activity (%) of Lcc35: pre-incubation pH 5.0, 30° C., 10 min
Description: The inhibitory effects of NaN3, ethylenediaminetetraacetic acid (EDTA), dithiothreitol (DTT), and L-Cysteine on Lcc35 were examined as follows. Lcc35 was pre-incubated in a solution (pH 5.0) containing one of the test compounds at 30° C. for 10 min. The laccase activity was then examined using ABTS as the substrate.

[2] = system: R. microporus BCRC 35318; assay: Effects of inducers on laccase production in R. microporus; type: cell-based; conditions: for Yield of laccase production: inducer 1 mM in basal medium
Description: (§1) To isolate the laccase from R. microporus BCRC 35318, eight-day-old mycelial disks (8 mm in diameter) collected from the PDA plate mentioned above were inoculated into a basal medium containing (per liter) 10 g glucose, 0.22 g ammonium tartrate, 0.9 g K2HPO4, 0.1 g KH2PO4, 0.05 g MgSO4.7H2O, 0.5 g CaCl2, 0.01 g Thiamine HCl, and 10 ml solution (0.08 g CuSO4.5H2O, 0.07 g MnSO4.4H2O, 4.3 g ZnSO4.7H2O and 0.05 g FeSO4.7H2O per liter). The pH of the medium was adjusted to 5.5. After being cultured for 10 days at 30° C. in a rotary shaker with a speed setting of 125 rpm, the supernatant of the fungal culture thus obtained was collected and passed through a […] filter (Nalgene) to remove fungal cells. The filtrate was mixed with 100% ammonium sulfate for protein precipitation. The precipitated proteins were dissolved in 40 ml of a 10 mM sodium acetate buffer (pH 6.0) and the resultant solution was dialyzed against the same acetate buffer overnight to remove co-precipitated ammonium sulfate and then concentrated to 4 ml by ultracentrifugal filteration with a molecular cutoff of 10 kDa (Amicon).
R. microporus BCRC 35318 cells were cultured in the basal medium described in Example 1 above, which was supplemented with veratryl alcohol, 4-hydroxybenxoic acid, ferulic acid, or rice straw powder. Lcc35 were isolated from the culture supernatants following the method also described above and its activity was determined.

[3] = system: Rigidoporus microporus BCRC 35318 laccase Lcc35, native (wild type), mature form SEQ ID NO:1; assay: Kinetic constants of Lcc35 for digesting ABTS and SGZ (initial reaction rates at various substrate concentrations); type: biochemical, R. microporus BCRC 35318
Description: The pH of the medium was adjusted to 5.5. After being cultured for 10 days at 30° C. in a rotary shaker with a speed setting of 125 rpm, the supernatant of the fungal culture thus obtained was collected and passed through a […] filter (Nalgene) to remove fungal cells. […] The precipitated proteins were dissolved in 40 ml of a 10 mM sodium acetate buffer (pH 6.0) and the resultant solution was dialyzed against the same acetate buffer overnight to remove co-precipitated ammonium sulfate and then concentrated to 4 ml by ultracentrifugal filteration with a molecular cutoff of 10 kDa (Amicon). Next, the laccase activities of Lcc35 under various pH conditions were determined, following the method described in Lu et al., Appl. Microbiol. […] After being incubated at 30° C. for 1 min (when ABST or SGZ was the substrate) or for 4 hours (when RBBR was the substrate), each of the reaction mixtures was examined with a spectrophotometer to determine its optical density at 420 nm (when ABST was the substrate), at 530 nm (when SGZ was the substrate), or at 585 nm (when RBBR was the substrate). […] Kinetic constants of Lcc35 for digesting ABTS and SGZ were determined based on the initial reaction rates of Lcc35 at various substrate concentrations. The enzymatic reactions were taken place at pH 5 (for ABST) or pH 6 (for SGH) and 70° C.

[4] = system: Rigidoporus microporus BCRC 35318 laccase Lcc35, native (wild type), mature form SEQ ID NO:1; assay: Inhibitor effects on Lcc35 laccase activity (ABTS as the substrate); type: biochemical, R. microporus BCRC 35318; conditions: 10 min; for Relative activity (residual laccase activity with inhibitor; None = 100.0): pre-incubated pH 5.0, 30° C.
Description: as §1
Next, the laccase activities of Lcc35 under various pH conditions were determined, following the method described in Lu et al., Appl. Microbiol. Biotechnol., 2007, 74, (6), 1232-1239. 0.01 ml of the Lcc35-containing solution was mixed with (i) 0.49 ml of a 50 mM reaction buffer of glycine-HCl (pH 2.0 to 3.0), sodium acetate (pH 4.0 to 6.0), or sodium phosphate (pH 7.0 to 8.0) and (ii) 0.5 ml of a substrate solution containing 2 mM ABTS, 1 mM [N,N′-bis(3,5-dimethoxy-4-hydroxybenzylidene)hydrazine] (SGZ), or 0.04% RBBR. After being incubated at 30° C. for 1 min (when ABST or SGZ was the substrate) or for 4 hours (when RBBR was the substrate), each of the reaction mixtures was examined with a spectrophotometer to determine its optical density at 420 nm (when ABST was the substrate), at 530 nm (when SGZ was the substrate), or at 585 nm (when RBBR was the substrate). One unit of laccase activity was defined as the amount of Lcc35 that oxidized 1 μmol substrate per min. […]

[5] = substrate SGZ, pH 6, 70° C., 530 nm
[6] = substrate ABTS, pH 5, 70° C., 420 nm

SMILES: N[C@@H](CS)C(=O)O [L-Cysteine]
- Relative activity (%) of Lcc35 ([1]; compound 0.1 mM): 97.2%
- Relative activity (%) of Lcc35 ([1]; compound 1.0 mM): 92.7%

SMILES: O=C(O)CN(CCN(CC(=O)O)CC(=O)O)CC(=O)O [EDTA, ethylenediaminetetraacetic acid]
- Relative activity (%) of Lcc35 ([1]; compound 10.0 mM): 100.0%
- Relative activity (%) of Lcc35 ([1]; compound 25.0 mM): 100.0%

SMILES: COc1cc(/C=C/C(=O)O)ccc1O [Ferulic acid, ferulic acid]
- Yield of laccase production [2]: 2.4 Unit ml^−1

SMILES: COc1cc(/C=N/N=C/c2cc(OC)c(O)c(OC)c2)cc(OC)c1O [SGZ, N,N′-bis(3,5-dimethoxy-4-hydroxybenzylidene)hydrazine]
- Kcat [3, 5]: 750 s⁻¹
- Km [3, 5]: 7 µM

SMILES: CCn1c(=NN=c2sc3cc(S(=O)(=O)O)ccc3n2CC)sc2cc(S(=O)(=O)O)ccc21 [ABTS, 2,2-azinobis(3-ethylbenzathiazoline-6-sulfonic acid)]
- Kcat [3, 6]: 730 s⁻¹
- Km [3, 6]: 53 µM

SMILES: O[C@H](CS)[C@H](O)CS (racemic) [DTT, dithiothreitol]
- Relative activity (%) of Lcc35 ([1]; compound 0.1 mM): 92.3%
- Relative activity (%) of Lcc35 ([1]; compound 1.0 mM): 91.8%

SMILES: COc1ccc(CO)cc1OC [Veratryl alcohol, veratryl alcohol]
- Yield of laccase production [2]: 3.4 Unit ml^−1

SMILES: [N-]=[N+]=[N-].[Na+] [NaN3]
- inhibitory effect on Lcc35 activity (in words) [1]: substantially inhibited
- Relative activity (%) of Lcc35 ([1]; compound 0.1 mM): 50.0%
- Relative activity (%) of Lcc35 ([1]; compound 1.0 mM): 17.0%
- Relative activity (residual laccase activity with inhibitor; None = 100.0) ([4]; 0.1 mM compound): 50.0%
- Relative activity (residual laccase activity with inhibitor; None = 100.0) ([4]; 1.0 mM compound): 17.0%
- inhibitory effect on Lcc35 (in words) ([4]; concentrations of Table 2, pH 5.0, 30° C.): substantially inhibited

SMILES: O=C(O)c1ccc(O)cc1 [4-Hydroxybenzoic acid, 4-hydroxybenzoic acid]
- Yield of laccase production [2]: 10.5 Unit ml^−1
- increase of Lcc35 production ([2]; versus no inducer): 10.5 fold
